Patent publication US20250213593A1, “Use of Derivatives based on Sarsasapogenin Structure and Pharmaceutical Compositions thereof” (BEIJING PHYTOVENT PHARMACEUTICAL TECHNOLOGY CO., LTD., priority 2022, published 2025)
pIC50: −log10 of the molar value. Like-named read-outs stand apart in the source and are kept apart here.

Legend:
[1] = test system: U937 (histiocytic lymphoma cells); test: Cell proliferation assay, U937; assay type: cell-based; conditions: Homo sapiens, U-937, 72 h
Method: (§1) • Experimental and analytical method: cells were inoculated into a 96-well cell culture plate with a lid at a maximum concentration of 10 μM for a test compound, and diluted in three folds to a series of test concentrations, and cells were incubated at 37° C., 5% CO2 for 72 h. The concentration of DMSO was 0.5%, 100 μl of medium was taken from each well. 100 μl of reagent (Celltitute Glo Assay Kit) was added to each well, and a flat plate was shaken on a plate shaker (protected from light) for 2 min. A culture plate was incubated (protected from light) at room temperature for 30 min. Chemiluminescence values were recorded by a multi-plate plate reader, and the experimental results were as follows:
(§2) U937 (histiocytic lymphoma cells), OCI-LY3 (human diffuse large B-cell lymphoma cells), U2932 (human diffuse large B-cell lymphoma cells), and HT cells (human mixed lymphoma cells) were analyzed in the table for experimental analysis of cell proliferation.

hippocampal neurons = test: L-cysteine-induced neuronal excitotoxicity; assay type: cell-based, SD rats; conditions: compound 1 μM, 24 h before inducer
Method: Experimental and analytical method: before the experiment, a 24-well cell culture plate was pretreated with Poly-D-lysine and placed in a cell incubator at 37° C. and 5% CO2 overnight. SD rats, 18 days pregnant, were ordered, brains of fetal rats (E18-19) were dissected, and hippocampal neurons in the brains were subjected to primary culture in a neuronal medium using a 24-well plate, and then cultured by a serum-free medium. The hippocampal neurons were cultured in a cell incubator at 37° C., 5% CO2 for 19 days (DIV19), then added with a compound to be tested (a final concentration of 1 μM) and a positive control AP5 [(2R)-amino-5-phosphonopentanoic acid(phosphonatopentanoate)] (a final concentration of 100 μM), cultured for 24 h, and then added with L-Cystine (400 μM) and NaHCO3 (10 mM). After 18 h, Hoechst3342 (2.5 μg/ml) was added for cell staining. The cells were placed in the incubator and cultured for 15 min, and photographed using the high-content fluorescence microscope, wherein 6 random non-overlapping fields were photographed for each duplicate well, and the total number of neurons and the number of dead neurons were counted with software Image J. The obtained data was used to determine whether there was a difference between a drug treatment group and a control group.
Compound treatment: 32 small molecule compounds in Embodiment 1 to Embodiment 19A were diluted with DMSO to a 1 mM mother solution; and 1 μL of mother solution was added to 1 ml of culture solution per well in a 24-well plate to a final concentration of 1 μM, wherein a positive control compound was […] of AP5 (100 mM mother solution), and a negative control was 1 μl of DMSO.

[2] = test system: Lepr gene mutant (DB) mice; test: Excessive urination in DB animals; assay type: in vivo, mouse; conditions: 80 mpk by gavage once every two days, 5 weeks; vs model group
From the text: • Experimental and analytical method: leptin receptor gene (OB-R) was also known as diabetes gene (db), leptin receptor (Lepr) is closely related to obesity, hypertension, diabetes, lipid metabolism disorders, etc. The courses of these diseases are greatly influenced by the genetic background. Topical insulin can not control the increase in blood glucose and gluconeogenesis levels in the liver. Gene editing technologies and embryo injection technologies were used to construct Lepr gene mutant mice. […] The urine volume of each mouse of this strain was as huge as hundreds of times that of normal mice, so patients with frequent urination could be simulated. The experiment was divided into three groups, i.e., a model group (non-administrated, onset mice with high urine volume), a control group (non-administrated, non-onset normal mice), and an experimental group (administrated Embodiment 1A, 80 mpk, by gavage once every two days), with 2 mice in the control group, and 3 mice in the other two groups. The small molecule used was Embodiment 1A. We observed the urine volume in cages of mice housed in single cages starting from Week 8 and after 5 weeks of continuous drug treatment. […] Experiment 32. Cardiovascular Inflammation Alleviation Effect on APOE Mutant Mice Fed with High-Fat Diets.

[3] = test system: U2932 (human diffuse large B-cell lymphoma cells); test: Cell proliferation assay, U2932; assay type: cell-based; conditions: U2932, 72 h
Method: as §1, §2

[4] = test system: HT cells (human mixed lymphoma cells); test: Cell proliferation assay, HT; assay type: cell-based; conditions: Homo sapiens, HT, 72 h
Method: as §1, §2

[5] = test system: OCI-LY3 (human diffuse large B-cell lymphoma cells); test: Cell proliferation assay, OCI-LY3; assay type: cell-based; conditions: Homo sapiens, OCI-Ly3, 72 h
Method: as §1, §2

C[C@H]1CC[C@@]2(OC1)O[C@H]1C[C@H]3[C@@H]4CC[C@@H]5C[C@@H](NC(=O)CCN6CCN(C)CC6)CC[C@]5(C)[C@H]4CC[C@]3(C)[C@H]1[C@@H]2C [Embodiment 1A]
IC50 ([1]; low sugar, read-out: U937 (IC50, uM) Low sugar): 1.8 µM
IC50 ([1]; normal sugar, read-out: U937 (IC50, uM) Normal sugar): 2.13 µM
protective effects on L-Cystine (400 μM)-induced neuronal excitotoxicity (hippocampal neurons): protective effects
urine wetting area in mouse cage [2]: significantly reduced
pIC50 [3]: 6.21
pIC50 [4]: 5.78
pIC50 [5]: 5.72
